Where “and” joins values, the source holds several entries; their conditions need not be identical. Identical values can stand only once.

A word on the GI50: it is the concentration that inhibits growth by half.

The test system of test [1] is HS01 cells. Nature of the test: Combination matrix cell viability assay. The test is classed as cell-based, human.
In test [2] the test system is HS02 cells. Nature of the test: Combination matrix cell viability assay. It is filed as cell-based, human.
Test [3] concerns phospho-AKT, phospho-FAK, phospho-Src, EphA2, cyclin D1, p21 in HS01 cells. The experiment in a line: Western blots of whole cell lysates of HS01 cells. It is filed as cell-based, human. Particulars: HS01, 24h. (In western blotting, separated proteins are transferred to a membrane and probed.)
Test [4] deals with primary human vestibular schwannoma (VS) cells. The experiment in a line: ApoTox-Glo viability in primary VS cells. Particulars: 96 hrs; omipalisib 16nM; dasatinib 200, 400, and 800nM. It is filed as cell-based.
The mark [5] stands for this setting: Homo sapiens, 72 h, HS01, single drug within the combination matrix.
Setting [6] is: Homo sapiens, 72 h, HS02, single drug within the combination matrix.
Setting [7] is: HS02, single drug within the combination matrix, 72h.
Setting [8] is: HS01, single drug within the combination matrix, 72h.

As to `CCn1c(=O)c(-c2cc[nH]n2)cc2c(C)nc(N)nc21` [Voxtalisib], the GI50 in test [1] (setting [5]) and in test [2] (setting [6]) was more than 10 µM in each case.
Regarding `Cc1nc(Nc2ncc(C(=O)Nc3c(C)cccc3Cl)s2)cc(N2CCN(CCO)CC2)n1` [Dasatinib, dasatinib], the GI50 in test [1] (setting [5]) and in test [2] (setting [6]) was more than 10 µM in each case. In addition, the “phosphorylated FAK-Tyr576 and Src-Tyr527” value in test [3] (dasatinib 100 and 400nM alone or in combination) was “Dose-dependent decreases”.
For the compound `CN(c1ncccc1CNc1nc(Nc2ccc3c(c2)CC(=O)N3)ncc1C(F)(F)F)S(C)(=O)=O` [PF-00562271], the concentration for 50% growth inhibition (GI50) in test [2] (setting [7]) is 6.5 µM and 3.8 µM.
On to `CN(C)C1CCN(C(=O)c2ccc(NC(=O)Nc3ccc(-c4nc(N5CCOCC5)nc(N5CCOCC5)n4)cc3)cc2)CC1` [Gedatolisib], for which the GI50 turned out to be 0.08 µM in test [1] (Homo sapiens, 72 h) and 0.09 µM in test [2] (Homo sapiens, 72 h).
For the compound `COc1ncc(-c2ccc3nccc(-c4ccnnc4)c3c2)cc1NS(=O)(=O)c1ccc(F)cc1F` [Omipalisib, omipalisib], in test [1] (setting [8]), the concentration for 50% growth inhibition (GI50) came to 0.02 µM. In test [1] (Homo sapiens, alone in HS01 cells), the 50% growth inhibitory concentration (GI50) was in the range of 0.05 to 0.08 µM. The synergistic doses in test [1] (omipalisib/dasatinib matrix, Fig. 1A (HS01, HS02)) is 39 to 156 nM. In test [3] (0.1 μM), the “Cyclin D1 levels” value is “reduced” and the p21 levels entry is given as “not observed”. Moreover, the “Phospho-AKT (T308 and S473) decrease” value in test [3] (omipalisib 4 and 16nM alone or with dasatinib 100 and 400nM) is on record as 91-99%. Besides, the “phosphorylated Src-Tyr527 levels compared to vehicle” value in test [3] (omipalisib alone) is on record as “increased”. Also, the “reduction in viability (mean fold change of all VS tumors)” value in test [4] is reported as not below 20%.
As for `CS(=O)(=O)N1CCN(Cc2cc3nc(-c4cccc5[nH]ncc45)nc(N4CCOCC4)c3s2)CC1` [Pictilisib], in test [2] (setting [6]), the GI50 was more than 10 µM.
On to `CNC(=O)c1ccccc1Nc1cc(Nc2ccc(N3CCOCC3)cc2OC)ncc1C(F)(F)F` [PND-1186], for which the GI50 in test [1] (setting [5]) and in test [2] (setting [6]) was more than 10 µM in each case.
`CNC(=O)c1ccccc1Nc1nc(Nc2ccc(N3CCOCC3)cc2OC)ncc1Cl` [TAE226]: the values for the 50% growth inhibitory concentration (GI50) in test [1] (setting [8]) and in test [2] (setting [7]) were 1 µM and 2.1 µM, respectively.
On to `Nc1cc(C(F)(F)F)c(-c2cc(N3CCOCC3)nc(N3CCOCC3)n2)cn1` [Buparlisib], for which the GI50 in test [1] (setting [5]) came out at 4.3 µM; in test [2] (setting [6]), 4.9 µM.

For the origin of these results see PMC10832398 (Molecular cancer therapeutics, 2023).
